Here are results for one compound from EPA's ToxValDB 9.5 (doi:10.2903/j.efsa.2009.184r).

One data set relates to Anas platyrhynchos. Conditions: oral, mortality.
A further data set relates to Apis mellifera. Conditions: acute; duration: 48 hours; oral; unspecified; mortality.
In another data set the test system is Bibionidae. Conditions: chronic/long-term; duration: 28 days.
A further data set concerns Colinus virginianus. Conditions: acute, oral, mortality.
For the next data set, the system named is Daphnia magna. Conditions: chronic/long-term; duration: 21 days.
In a further data set the test system is Lepomis macrochirus. Conditions: acute; duration: 96 hours; mortality.
Another data set concerns Mus musculus. Conditions: chronic; duration: 18 months; histopathology: nonneoplastic.
The next data set has as its system Oncorhynchus mykiss. Conditions: chronic/long-term; duration: 28 days; growth.
In another data set the test system is Tagia sp. Conditions: acute; duration: 14 days; mortality.
Another data set deals with Aphidius rhopalosiphi. Put plainly: LR50; higher = less toxic. Conditions: not reported; mortality.

What is called LOAEL is the lowest dose or exposure tested at which an adverse effect was seen. What is called NOAEL is the highest tested level that showed no adverse finding.

Turning to `O=C(NC(=O)c1c(F)cccc1F)Nc1cc(Cl)c(F)c(Cl)c1F` [Teflubenzuron], the LD50 in the data set with Anas platyrhynchos (acute, unspecified) is over 2000 mg/kg-day; in the data set on Anas platyrhynchos (short-term, feed), over 1210 mg/kg-day; in the data set on Apis mellifera, over 72 µg/piece; in the data set on Colinus virginianus (diet), over 1010 mg/kg-day; in the data set on Colinus virginianus it was over 2250 mg/kg-day; with Rattus norvegicus (acute, oral, mortality), over 5000 mg/kg-day. Further, the figures for the NOEC with Bibionidae, in the data set on Daphnia magna and in the data set with Oncorhynchus mykiss were 0.05 mg/kg, 6.2e-05 mg/L and 0.0186 mg/L, respectively. In addition, the figures for the LC50 with Lepomis macrochirus and with Tagia sp. were over 6.5 ng/mL and over 1000 mg/kg, respectively. This compound also gave an LOAEL with Mus musculus of 2.1 mg/kg-day. For the same compound, the NOAEL with Rattus norvegicus (chronic) turned out to be 40 mg/kg-day; in the data set on Rattus norvegicus (subchronic, duration: 90 days, oral, clinical chemistry), 8 mg/kg-day. For the same compound, in the data set with Aphidius rhopalosiphi, the LR50 is over 180 g/ha.
